{"source": "paper PMC9331863", "about": "(Antibiotics, 2022)", "key": {"[1]": {"details": "cited from earlier work", "description": "Data were retrieved from registrative phase II/III clinical trials."}, "[2]": {"assay": "Population pharmacokinetic modelling of dalbavancin plasma concentrations (TDM) in patients", "details": "for Q, inter-compartmental clearance / V1, central volume of distribution / V2, peripheral volume of distribution: typical value (%RSE)", "experimental": "The study was approved by the local Ethics Committee (registration number 897/2021/Oss/AOUBo). Signed informed consent was waived due to the retrospective and observational nature of the investigation according to hospital agreements.\nThe dose amount (1000 mg or 1500 mg) was arbitrarily decided by the infectious diseases consultant at each patient center. The decision to administer any additional doses was taken in relation to the clinical evaluation of disease progression after at least 4 weeks from the administration of the second dose and it was based on the patient’s physical examination and on the trend of inflammatory biomarkers.\nBlood samples were collected at different time-points after the second dose and sent to our lab for analysis. […] The lower limit of quantification was 0.5 mg/L.\nAt a first stage, a basic model was developed, by comparing one-, two- and three-compartment models with linear elimination. All individual parameters were log-normally distributed. Exponential random effects were assumed to describe inter-individual variability. Correlations between random effects were tested in the variance–covariance matrix and implemented into the structural model accordingly. Residual variability was tested according to three different error models (constant, proportional and combined error model).\nThe following covariates were tested on the PK parameters of the base model: age, gender, weight, height, serum albumin, serum creatinine and CLCR. The parameter–covariate relationships were modeled as additive or proportional shifts from the reference category for binary covariates, whereas the effect of continuous covariates was modeled using a power function. A covariate was included in the model according to the results of the likelihood ratio test (LRT) and if a reduction in the BIC and a decrease in the interpatient variability of the fixed-effect parameters were obtained. Descriptions of the pharmacokinetic model building and covariate analysis are reported in the Supplementary Materials."}, "[3]": {"details": "real-world use beyond approved indications, outpatient antimicrobial treatment; cited from earlier work"}, "[4]": {"details": "cited from earlier work", "remark": "listed apart in the source"}, "[5]": {"details": "three-compartment model, 703 patients with ABSSSI, ref Carrothers et al. [12]"}, "[6]": {"details": "median (min–max) of population, 69 patients, two-compartment final model"}}, "note": "Where two headings read alike, the source gives them in different places."}
{"smiles": "CN[C@H]1C(=O)N[C@@H]2Cc3ccc(cc3)Oc3cc4cc(c3O[C@@H]3O[C@H](C(=O)O)[C@@H](O)[C@H](O)[C@H]3NC(=O)CCCCCCCCC(C)C)Oc3ccc(cc3Cl)[C@@H](O)[C@@H]3NC(=O)[C@H](NC(=O)[C@@H]4NC(=O)[C@@H](NC2=O)c2cc(cc(O)c2Cl)Oc2cc1ccc2O)c1ccc(O)c(c1)-c1c(O[C@H]2O[C@H](CO)[C@@H](O)[C@H](O)[C@@H]2O)cc(O)cc1[C@@H](C(=O)NCCCN(C)C)NC3=O", "note": "[dalbavancin]", "values": [{"measurement": "elimination half-life", "setting": "[1]", "value": "> 180", "unit": "h"}, {"measurement": "population CL", "setting": "[1]; [5]", "value": 0.053, "unit": "L/h"}, {"measurement": "total V", "setting": "[1]; [5]", "value": 15.0, "unit": "L"}, {"measurement": "population CL", "setting": "[1]; two-compartment model, 532 patients (ABSSSI, bloodstream infections), ref Buckwalter et al. [11]", "value": 0.057, "unit": "L/h"}, {"measurement": "total V", "setting": "[1]; two-compartment model, 532 patients, ref Buckwalter et al. [11]", "value": 15.9, "unit": "L"}, {"measurement": "Q, inter-compartmental clearance", "setting": "[2]; base model", "value": "0.026 (17.9) L/h"}, {"measurement": "V1, central volume of distribution", "setting": "[2]; base model", "value": "6.15 (4.79) L"}, {"measurement": "V2, peripheral volume of distribution", "setting": "[2]; base model", "value": "10.51 (13.7) L"}, {"measurement": "Q, inter-compartmental clearance", "setting": "[2]; final model", "value": "0.026 (18.1) L/h"}, {"measurement": "V1, central volume of distribution", "setting": "[2]; final model", "value": "6.14 (5.26) L"}, {"measurement": "V2, peripheral volume of distribution", "setting": "[2]; final model", "value": "9.52 (19.0) L"}, {"measurement": "CL, total body clearance", "setting": "[2]; human, in vivo", "value": "0.029 (11.6) L/h"}, {"measurement": "Vd", "setting": "[2]; human, in vivo", "value": 15.7, "unit": "L"}, {"measurement": "clearance", "setting": "[2]; human, in vivo, CL, total body clearance", "value": 0.683, "unit": "mL/min"}, {"measurement": "clearance", "setting": "[2]; human, in vivo, population CL", "value": 0.717, "unit": "mL/min"}, {"measurement": "population V1", "setting": "[2]; [6]", "value": "6.21 (5.10–7.19) L"}, {"measurement": "population V2", "setting": "[2]; [6]", "value": "9.48 (7.60–11.89) L"}, {"measurement": "overall clinical success rate", "setting": "[3]", "value": "greater than 80%"}, {"measurement": "penetration rate into bone tissue", "setting": "[4]", "value": 13.1, "unit": "%"}]}
